Data taken from US20250109135A1, “NOVEL ISOINDOLINONE DERIVATIVE COMPOUNDS AS CASPASE INHIBITORS” (INNOVO THERAPEUTICS INC., priority 2022, published 2025).
Like-named read-outs stand apart in the source and are kept apart here.

Columns and labels:
[1] = tested on: Secreted IL-1β in THP-1 cells; experiment: Interleukin-1β inhibitory activity in human monocytic cells THP-1 (ELISA); assay type: cell-based; conditions: compound 100 nM, PMA-differentiated THP-1, LPS 10 μg/ml then 5 mM ATP, 24 h
Description: Caspase-1 is known as […] (ICE). Activated Caspase-1 is involved in the cleavage of pro-form IL-1β to produce the mature form, which is then secreted to induce inflammation. Therefore, the compounds identified in Experimental example 1 were tested to determine if their Caspase-1 inhibitory activity affected the production of […].
THP-1 (ATCC) cells were cultured in RPMI 1640 (Hyclone) growth medium comprising 10% Fetal bovine serum (FBS, Gibco) and antibiotics (100 U/ml Penicillin, 0.1 mg/ml Streptomycin, Cytiva) under 37° C., 5% CO2 conditions. Cultured THP-1 cells were seeded in growth medium to a concentration of 3×10^5 cells/well in 24-well plates (Celvest) and then treated with 1 μM Phorbol 12-myristate 13-acetate (PMA) (Sigma) for 24 hours to induce differentiation. Differentiated THP-1 were pre treated with 10 μg/ml Lipopolysaccharide (LPS, from E. coli 0111:B4 (InvivoGen)) in serum free RPMI 1640 medium for 24 hours to induce an inflammatory response. After removal of LPS, the compounds were pretreated for 1 h at a concentration of 100 nM using the same medium, followed by the addition of 5 mM ATP (InvivoGen) and incubation for 24 h in an incubator. The treated medium was collected and centrifuged, and IL-1β was quantified using an Enzyme linked immunoassay kit (ELISA kit, R&D system), and absorbance was measured at 450 nm using a CLARIOstar Plus spectrometer. Inhibitory activity was denoted as a if it was 50% or more, b if it was 30% or more but less than 50%, c if it was 10% or more but less than 30%, and d if it was less than 10%.

[2] = tested on: Jurkat cells; experiment: Apoptosis inhibition activity in human T-lymphocyte cells Jurkat (anti-FAS antibody, intracellular ATP); assay type: cell-based; conditions: compound 50 nM, 1 μg/ml anti-FAS antibody 24 h, ATP luminescence
Description: To evaluate the effect of the compound of the present invention on apoptosis, Jurkat (ATCC) cells were treated with anti-FAS antibody CH-11 (Merck) to induce apoptosis via the Fas (CD95) receptor, which was assessed by the amount of intracellular ATP.
Jurkat cells were cultured in RPMI 1640 growth medium comprising 10% FBS and antibiotics (100 U/ml Penicillin, 0.1 mg/ml Streptomycin) under 37° C., 5% CO2 conditions. Cultured cells were seeded in growth medium to a concentration of 8×10^4 cells/well in 96-well plates (SPL), pretreated with compound at a concentration of 50 nM for 1 hour, and then treated with 1 μg/ml anti-FAS antibody for 24 hours in an incubator. After 24 h, an ATP lite Luminescence assay kit (PerkinElmer) was used to measure ATP and luminescence was measured at 580 nm using a CLARIOstar Plus spectrometer. If the inhibitory activity is 30% or more, it is denoted as a′, if it is 20% or more but less than 30%, it is denoted as b′, if it is 10% or more but less than 20%, it is denoted as c′, and if it is less than 10%, it is denoted as d′.

[3] = molecular target: T1, recombinant human Caspase-1 (Homo sapiens, UniProt P29466); experiment: Caspase-1 inhibitory activity, fluorescent substrate Ac-YVAD-AFC; assay type: biochemical
T1 construct: purchased Enzo life science
T1 sequence (P29466 120-297 limits assumed): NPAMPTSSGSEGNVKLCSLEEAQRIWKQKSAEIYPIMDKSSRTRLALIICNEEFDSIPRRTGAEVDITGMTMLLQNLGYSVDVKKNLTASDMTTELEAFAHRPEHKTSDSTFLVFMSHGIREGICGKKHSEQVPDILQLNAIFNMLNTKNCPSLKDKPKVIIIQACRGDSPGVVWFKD
T1 sequence (P29466 317-404 limits assumed): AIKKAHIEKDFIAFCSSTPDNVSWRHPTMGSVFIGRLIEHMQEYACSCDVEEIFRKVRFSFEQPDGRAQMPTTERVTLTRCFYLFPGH
Description: To determine the Caspase-1 inhibitory activity of the compounds of the present invention prepared in Example, Caspase-1 activity was measured using a substrate with a fluorescent dye attached to it. […] The compound was dissolved in DMSO and stored at −20° C. Enzymatic reactions were carried out in a buffer comprising 50 mM HEPES (pH 8.0), 50 mM KCl, 200 mM NaCl, 10 mM DTT, 0.1% CHAPS (w/v). Enzyme inactivation was measured in the presence of different concentrations of the compound using the fluorescent substrate N-Acetyl-Tyr-Val-Ala-Asp-7-amido-4-trifluoromethylcoumarin (Ac-YVAD-AFC) (Sigma) at a concentration of 50 μM and 1 unit of recombinant human Caspase-1 (Enzo life science). A CLARIOstar Plus spectrometer (BMG Labtech) was used to measure the reaction rate as a function of time in the 400/505 nm (Ex/Em) wavelength band. […] If kobs/[I] is 20 or more, it is denoted as A, if it is 10 or more but less than 20, it is denoted as B, if it is 1 or more but less than 10, it is denoted as C, and if it is less than 1, it is denoted as D.
In the above equation, At means the enzyme reaction rate at time t (min), and Amax means the maximum reaction rate.

[4] = pH 8, 1 unit recombinant human Caspase-1, 50 μM Ac-YVAD-AFC, read-out: kobs/[I] Caspase-1
[5] = pH 8, read-out: kobs/[I] Caspase-1

Compound | kinact/KI [3, 4] | inhibition at 0.1 µM [1] | inhibition at 0.05 µM [2] | kinact/KI [3, 5]
CCC(C(=O)NC(CC(=O)O)C(=O)CF)N1Cc2ccc(N3CCCC3)cc2C1=O (stereo not drawn) [Compound 3, 5-fluoro-4-oxo-3-(2-(1-oxo-6-(pyrrolidin-1-yl)isoindolin-2-yl)butanamido)pentanoic acid] | 0.0167 to 0.167 M⁻¹ s⁻¹ | 30 to 50% | 20 to 30% | –
CCC(C(=O)NC(CC(=O)O)C(=O)CF)N1Cc2ccc(-c3cccnc3)cc2C1=O (stereo not drawn) [Compound 4, 5-fluoro-4-oxo-3-(2-(1-oxo-6-(pyridin-3-yl)isoindolin-2-yl)butanamido)pentanoic acid] | 0.0167 to 0.167 M⁻¹ s⁻¹ | 30 to 50% | 10 to 20% | –
CCC(C(=O)NC(CC(=O)O)C(=O)CF)N1Cc2ccc(-c3cn[nH]c3)cc2C1=O (stereo not drawn) [Compound 5, 5-fluoro-4-oxo-3-(2-(1-oxo-6-(1H-pyrazol-4-yl)isoindolin-2-yl)butanamido)pentanoic acid] | 0.0167 to 0.167 M⁻¹ s⁻¹ | 30 to 50% | 10 to 20% | –
CCC(C(=O)NC(CC(=O)O)C(=O)CF)N1Cc2ccc(N3CCN(S(C)(=O)=O)CC3)cc2C1=O (stereo not drawn) [Compound 6, 5-fluoro-3-(2-(6-(4-(methylsulfonyl)piperazin-1-yl)-1-oxoisoindolin-2-yl)butanamido)-4-oxopentanoic acid] | < 0.0167 M⁻¹ s⁻¹ | 10 to 30% | 10 to 20% | –
CCC(C(=O)NC(CC(=O)O)C(=O)CF)N1Cc2ccc(-c3ccc4[nH]c(=O)[nH]c4c3)cc2C1=O (stereo not drawn) [Compound 8, 5-fluoro-4-oxo-3-(2-(1-oxo-6-(2-oxo-2,3-dihydro-1H-benzo[d]imidazol-5-yl)isoindolin-2-yl)butanamido)pentanoic acid] | 0.0167 to 0.167 M⁻¹ s⁻¹ | ≥ 50% | 10 to 20% | –
CCC(C(=O)NC(CC(=O)O)C(=O)CF)N1Cc2ccc(Br)cc2C1=O (stereo not drawn) [Compound 9, 3-(2-(6-bromo-1-oxoisoindolin-2-yl)butanamido)-5-fluoro-4-oxopentanoic acid] | 0.0167 to 0.167 M⁻¹ s⁻¹ | 30 to 50% | ≥ 30% | –
CCC(C(=O)NC(CC(=O)O)C(=O)CF)N1Cc2ccc(N3CCn4cc(C(F)(F)F)nc4C3)cc2C1=O (stereo not drawn) [Compound 10, 5-fluoro-4-oxo-3-(2-(1-oxo-6-(2-(trifluoromethyl)-5,6-dihydroimidazo[1,2-a]pyrazin-7(8H)-yl)isoindolin-2-yl)butanamido)pentanoic acid] | 0.0167 to 0.167 M⁻¹ s⁻¹ | 30 to 50% | 10 to 20% | –
CCC(C(=O)NC(CC(=O)O)C(=O)CF)N1Cc2ccc(-c3csc4ccccc34)cc2C1=O (stereo not drawn) [Compound 16, 3-(2-(6-(benzo[b]thiophen-3-yl)-1-oxoisoindolin-2-yl)butanamido)-5-fluoro-4-oxopentanoic acid] | – | ≥ 50% | 20 to 30% | > 0.333 M⁻¹ s⁻¹
CCC(C(=O)NC(CC(=O)O)C(=O)CF)N1Cc2ccc(-c3cnc4ccccc4c3)cc2C1=O (stereo not drawn) [Compound 37, 5-fluoro-4-oxo-3-(2-(1-oxo-6-(quinolin-3-yl)isoindolin-2-yl)butanamido)pentanoic acid] | – | 10 to 30% | < 10% | 0.0167 to 0.167 M⁻¹ s⁻¹
O=C(O)CC(NC(=O)CN1Cc2ccc(-c3ccc4[nH]c(=O)[nH]c4c3)cc2C1=O)C(=O)CF (stereo not drawn) [Compound 38, 5-fluoro-4-oxo-3-(2-(1-oxo-6-(2-oxo-2,3-dihydro-1H-benzo[d]imidazol-5-yl)isoindolin-2-yl)acetamido)pentanoic acid] | – | < 10% | < 10% | < 0.0167 M⁻¹ s⁻¹
O=C(O)CC(NC(=O)CN1Cc2ccc(-c3coc4ccccc34)cc2C1=O)C(=O)CF (stereo not drawn) [Compound 39, 3-(2-(6-(benzofuran-3-yl)-1-oxoisoindolin-2-yl)acetamido)-5-fluoro-4-oxopentanoic acid] | – | < 10% | < 10% | 0.0167 to 0.167 M⁻¹ s⁻¹
O=C(O)CC(NC(=O)CN1Cc2ccc(-c3csc4ccccc34)cc2C1=O)C(=O)CF (stereo not drawn) [Compound 40, 3-(2-(6-(benzo[b]thiophen-3-yl)-1-oxoisoindolin-2-yl)acetamido)-5-fluoro-4-oxopentanoic acid] | – | < 10% | < 10% | 0.0167 to 0.167 M⁻¹ s⁻¹

Now from value to compound, other results behind:

kinact/KI [3, 4] | Compound | inhibition at 0.1 µM [1] | inhibition at 0.05 µM [2] | kinact/KI [3, 5]
0.0167 to 0.167 M⁻¹ s⁻¹ | CCC(C(=O)NC(CC(=O)O)C(=O)CF)N1Cc2ccc(-c3ccc(OC)nc3)cc2C1=O (stereo not drawn) [Compound 13, 5-fluoro-3-(2-(6-(6-methoxypyridin-3-yl)-1-oxoisoindolin-2-yl)butanamido)-4-oxopentanoic acid] | ≥ 50% | 20 to 30% | –
0.0167 to 0.167 M⁻¹ s⁻¹ | CCC(C(=O)NC(CC(=O)O)C(=O)CF)N1Cc2ccc(-c3ccc(C(C)=O)cc3)cc2C1=O (stereo not drawn) [Compound 18, 3-(2-(6-(4-acetylphenyl)-1-oxoisoindolin-2-yl)butanamido)-5-fluoro-4-oxopentanoic acid] | ≥ 50% | 10 to 20% | –
> 0.333 M⁻¹ s⁻¹ | CCC(C(=O)NC(CC(=O)O)C(=O)CF)N1Cc2ccc(-c3coc4ccccc34)cc2C1=O (stereo not drawn) [Compound 22, 3-(2-(6-(benzofuran-3-yl)-1-oxoisoindolin-2-yl)butanamido)-5-fluoro-4-oxopentanoic acid] | 30 to 50% | 10 to 20% | –
0.0167 to 0.167 M⁻¹ s⁻¹ | CCC(C(=O)NC(CC(=O)O)C(=O)CF)N1Cc2ccc(-c3ccc4occc4c3)cc2C1=O (stereo not drawn) [Compound 26, 3-(2-(6-(benzofuran-5-yl)-1-oxoisoindolin-2-yl)butanamido)-5-fluoro-4-oxopentanoic acid] | 30 to 50% | ≥ 30% | –
0.0167 to 0.167 M⁻¹ s⁻¹ | CCC(C(=O)NC(CC(=O)O)C(=O)CF)N1Cc2ccc(-c3ccc4c(c3)OCCO4)cc2C1=O (stereo not drawn) [Compound 27, 3-(2-(6-(2,3-dihydrobenzo[b][1,4]dioxin-6-yl)-1-oxoisoindolin-2-yl)butanamido)-5-fluoro-4-oxopentanoic acid] | 10 to 30% | ≥ 30% | –
0.0167 to 0.167 M⁻¹ s⁻¹ | CCC(C(=O)NC(CC(=O)O)C(=O)CF)N1Cc2ccc(-c3cncc4ccccc34)cc2C1=O (stereo not drawn) [Compound 29, 5-fluoro-3-(2-(6-(isoquinolin-4-yl)-1-oxoisoindolin-2-yl)butanamido)-4-oxopentanoic acid] | < 10% | < 10% | –
0.167 to 0.333 M⁻¹ s⁻¹ | CCC(C(=O)NC(CC(=O)O)C(=O)CF)N1Cc2ccc(-c3ccc4ncccc4c3)cc2C1=O (stereo not drawn) [Compound 30, 5-fluoro-4-oxo-3-(2-(1-oxo-6-(quinolin-6-yl)isoindolin-2-yl)butanamido)pentanoic acid] | < 10% | < 10% | –
